These results are taken from US9745265B2, “4-heteroaryl substituted benzoic acid compounds as RORgammaT inhibitors and uses thereof” (Merck Sharp & Dohme Corp., priority 2012, dated 2017).

The term IC50 denotes the midpoint of a concentration-inhibition curve.

For the first test, the target named is human RORgammaT-Ligand Binding Domain (LBD) (Homo sapiens (Human), UniProt P51449). Description: RORγ-Ligand Binding Domain TR-FRET Assay (SRC1_2 co-activator peptide).
Chain of human RORgammaT-Ligand Binding Domain (LBD) (P51449 269-508): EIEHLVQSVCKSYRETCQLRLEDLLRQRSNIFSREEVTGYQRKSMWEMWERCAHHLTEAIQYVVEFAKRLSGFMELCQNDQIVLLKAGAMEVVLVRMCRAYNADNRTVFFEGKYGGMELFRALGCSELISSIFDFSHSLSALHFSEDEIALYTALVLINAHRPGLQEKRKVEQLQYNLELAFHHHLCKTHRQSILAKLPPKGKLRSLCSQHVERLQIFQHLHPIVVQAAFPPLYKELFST
Conditions: not given
The class given is biochemical. (Time-resolved FRET reads energy transfer from a long-lived donor to a nearby acceptor.)
Consider `CS(=O)(=O)Nc1cc(-c2nn(C(=O)c3c(Cl)cccc3C(F)(F)F)c3cccnc23)ccc1C(=O)O` [Example 3B, 4-(1-(2-chloro-6-(trifluoromethyl)benzoyl)-1H-pyrazolo[4,3-b]pyridin-3-yl)-2-(methylsulfonamido)benzoic acid], for which the concentration for half-maximal inhibition (IC50) was 1650 nM.
The same measure, in the same setting: for `COCC(=O)n1nc(-c2ccc(C(=O)O)cc2F)c2ccccc21` [Example 1J, 3-fluoro-4-[1-(methoxy-acetyl)-1H-indazol-3-yl]benzoic acid] the value was 5570 nM.
In the case of `O=C(O)c1ccc(-c2nn(C(=O)c3cccc4ccoc34)c3ccccc23)c(F)c1` [Example 1S, 4-[1-(1-benzofuran-7-ylcarbonyl)-1H-indazol-3-yl]-3-fluorobenzoic acid], the IC50 was determined as 1480 nM.
On the same count and under the same terms, under `C[C@@H]1CN(C(=O)c2ccc3c(-c4ccc(C(=O)O)cc4F)nn(C(=O)c4c(Cl)cccc4C(F)(F)F)c3c2)C[C@H](C)O1` [Example 2B, 4-(1-(2-chloro-6-(trifluoromethyl)benzoyl)-6-((2S,6R)-2,6-dimethylmorpholine-4-carbonyl)-1H-indazol-3-yl)-3-fluorobenzoic acid] stands 15 nM.
On the same count and under the same terms, for `O=C(O)c1ccc(-c2nn(C(=O)c3c(Cl)cccc3OC3CC3)c3ccccc23)cc1` [Example 1H, 4-(1-(2-chloro-6-cyclypropoxybenzoyl)-1H-indazol-3-yl)benzoic acid] the value was 39 nM.
As to `CC(C(=O)n1nc(-c2ccc(C(=O)O)cc2F)c2ccccc21)c1ccccc1` (stereo not drawn) [Example 1I, 3-fluoro-4-(1-(2-phenylpropanoyl)-1H-indazol-3-yl)benzoic acid], the IC50 turned out to be 4320 nM.

The same test, now with this note: HIS-tagged RORγ-LBD 3 nM, biotinylated SRC1 LXXLL peptide 100 nM, incubated overnight at 4° C., 665/615 nm ratio.
Turning to `O=C(O)c1ccc(-c2nn(C(=O)c3c(Cl)cccc3C(F)(F)F)c3cc(N4CCOCC4)ccc23)cc1` [Example 4H, 4-(1-(2-chloro-6-(trifluoromethyl)benzoyl)-6-morpholino-1H-indazol-3-yl)benzoic acid], the IC50 worked out at 4320 nM.
Take `CC(C)(C)OC(=O)Nc1cnc2c(-c3ccc(C(=O)O)cc3F)nn(C(=O)c3c(Cl)cccc3C(F)(F)F)c2c1` [Example 29A, 4-(6-(tert-butoxycarbonylamino)-1-(2-chloro-6-(trifluoromethyl)benzoyl)-1H-pyrazolo[4,3-b]pyridin-3-yl)-3-fluorobenzoic acid]: the IC50 came to 191 nM.
On the same count and under the same terms, for `O=C1CCN(C(=O)c2ccc3c(-c4ccc(C(=O)O)cc4F)nn(C(=O)c4c(Cl)cccc4C(F)(F)F)c3c2)CC1` [Example 2C, 4-(1-(2-chloro-6-(trifluoromethyl)benzoyl)-6-(4-oxopiperidine-1-carbonyl)-1H-indazol-3-yl)-3-fluorobenzoic acid] the value was 4 nM; for `CN(c1ccc2c(-c3ccc(C(=O)O)cc3F)nn(C(=O)c3c(Cl)cccc3C(F)(F)F)c2c1)S(C)(=O)=O` [Example 5G, 4-(1-(2-chloro-6-(trifluoromethyl)benzoyl)-6-(N-methylmethylsulfonamido)-1H-indazol-3-yl)-3-fluorobenzoic acid], 1500 nM; for `Cc1cc(N2CCOCC2)cc(Cl)c1C(=O)n1nc(-c2ccc(C(=O)O)cc2F)c2ncccc21` [Example 40A, 4-(1-(2-chloro-6-methyl-4-morpholinobenzoyl)-1H-pyrazolo[4,3-b]pyridin-3-yl)-3-fluorobenzoic acid], 6870 nM.
As to `CC(C)(C)OC(=O)Nc1cc2c(-c3ccc(C(=O)O)cc3F)cn(C(=O)c3c(Cl)cccc3C(F)(F)F)c2cn1` [Example 28A, 4-(5-(tert-butoxycarbonylamino)-1-(2-chloro-6-(trifluoromethyl)benzoyl)-1H-pyrrolo[2,3-c]pyridin-3-yl)-3-fluorobenzoic acid], the concentration for half-maximal inhibition (IC50) came to 182 nM.
The same measure, in the same setting: for `Cc1cc(N(C)C)cc(Cl)c1C(=O)n1nc(-c2ccc(C(=O)O)cc2F)c2ncccc21` [Example 42A, 4-(1-(2-chloro-4-(dimethylamino)-6-methylbenzoyl)-1H-pyrazolo[4,3-b]pyridin-3-yl)-3-fluorobenzoic acid] the value was 2320 nM; for `CC(O)C#Cc1ccc2c(-c3ccc(C(=O)O)cc3F)nn(C(=O)c3c(Cl)cccc3C(F)(F)F)c2c1` (stereo not drawn) [Example 12A, 4-(1-(2-chloro-6-(trifluoromethyl)benzoyl)-6-(3-hydroxybut-1-ynyl)-1H-indazol-3-yl)-3-fluorobenzoic acid], 105 nM; for `CC(=O)Nc1cc(-c2nn(C(=O)c3c(Cl)cccc3C(F)(F)F)c3ccccc23)ccc1C(=O)O` [Example 3A, 2-acetamido-4-(1-(2-chloro-6-(trifluoromethyl)benzoyl)-1H-indazol-3-yl)benzoic acid], 1470 nM.
